From PubChem BioAssay AID1259411 (Chemical Carcinogenesis Research Information System (CCRIS), 2018)
Active and inactive are the calls of the source. The rule behind the calls is not given here.

Test system: rodent carcinogenicity bioassays, tumor incidence
Test: CCRIS carcinogenicity studies
Details: Route: ORAL
Procedure, shortened: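 Archive of carcinogenicity, mutagenicity, tumor promotion and tumor inhibition results drawn from journals, NCI reports and other sources, expert-reviewed; covers 1985-2011 and is no longer updated.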

Measured: carcinogen call

O=NN1CCCCCC1
active: Species: MOUSE, Strain/Sex: NZB/FEMALE, Dose: 0, 1.56 NMOL IN DRINKING WATER 5D/WK FOR 8 WK FOR A TOTAL DOSE OF 0, 6.4 MILLIMOLAR/KG (STUDY DURATION: 400-600 D), Dose: 0, 1.56 NMOL IN DRINKING WATER 5D/WK FOR 8 WK FOR A TOTAL DOSE OF 0, 6.4 MILLIMOLAR/KG (STUDY DURATION: 400-600 D), Tumor Site: Type of Lesion: OROPHARYNX: PAPILLOMA OR CARCINOMA, ESOPHAGUS: PAPILLOMA OR CARCINOMA, STOMACH: SQUAMOUS CELL CARCINOMA, LIVER: HEPATOCE, Tumor Site: Type of Lesion: OROPHARYNX: PAPILLOMA OR CARCINOMA, ESOPHAGUS: PAPILLOMA OR CARCINOMA, STOMACH: SQUAMOUS CELL CARCINOMA, LIVER: HEPATOCE active; positive | Species: MOUSE, Strain/Sex: NZB/MALE, Dose: 0, 1.56 NMOL IN DRINKING WATER 5D/WK FOR 8 WK FOR A TOTAL DOSE OF 0, 5.4 MILLIMOLAR/KG (STUDY DURATION: 400-600 D), Dose: 0, 1.56 NMOL IN DRINKING WATER 5D/WK FOR 8 WK FOR A TOTAL DOSE OF 0, 5.4 MILLIMOLAR/KG (STUDY DURATION: 400-600 D), Tumor Site: Type of Lesion: ESOPHAGUS: PAPILLOMA OR CARCINOMA, STOMACH: SQUAMOUS CELL CARCINOMA, LIVER: HEPATOCELLULAR TUMOR, LUNG: ALVEOLAR ADENOMA, Tumor Site: Type of Lesion: ESOPHAGUS: PAPILLOMA OR CARCINOMA, STOMACH: SQUAMOUS CELL CARCINOMA, LIVER: HEPATOCELLULAR TUMOR, LUNG: ALVEOLAR ADENOMA active; positive | Species: MOUSE, Strain/Sex: NZC/FEMALE, Dose: 0, 1.56 NMOL IN DRINKING WATER 5D/WK FOR 8 WK FOR A TOTAL DOSE OF 0, 5.3 MILLIMOLAR/KG (STUDY DURATION: 600-800 D), Dose: 0, 1.56 NMOL IN DRINKING WATER 5D/WK FOR 8 WK FOR A TOTAL DOSE OF 0, 5.3 MILLIMOLAR/KG (STUDY DURATION: 600-800 D), Tumor Site: Type of Lesion: ESOPHAGUS: CARCINOMA OR PAPILLOMA, STOMACH: SQUAMOUS CELL CARCINOMA, LIVER: HEPATOCELLULAR TUMOR, Tumor Site: Type of Lesion: ESOPHAGUS: CARCINOMA OR PAPILLOMA, STOMACH: SQUAMOUS CELL CARCINOMA, LIVER: HEPATOCELLULAR TUMOR active; positive | Species: MOUSE, Strain/Sex: NZC/MALE, Dose: 0, 1.56 NMOL IN DRINKING WATER 5D/WK FOR 8 WK FOR A TOTAL DOSE OF 0, 6 MILLIMOLAR/KG (STUDY DURATION: 600-800 D), Dose: 0, 1.56 NMOL IN DRINKING WATER 5D/WK FOR 8 WK FOR A TOTAL DOSE OF 0, 6 MILLIMOLAR/KG (STUDY DURATION: 600-800 D), Tumor Site: Type of Lesion: OROPHARYNX: PAPILLOMA OR CARCINOMA, ESOPHAGUS: PAPILLOMA OR CARCINOMA, STOMACH: SQUAMOUS CELL CARCINOMA, LIVER: HEPATOCE, Tumor Site: Type of Lesion: OROPHARYNX: PAPILLOMA OR CARCINOMA, ESOPHAGUS: PAPILLOMA OR CARCINOMA, STOMACH: SQUAMOUS CELL CARCINOMA, LIVER: HEPATOCE active; positive | Species: MOUSE, Strain/Sex: NZO/FEMALE, Dose: 0, 1.56 NMOL IN DRINKING WATER 5D/WK FOR 8 WK FOR A TOTAL DOSE OF 0: 6.3 MILLIMOLAR/KG (STUDY DURATION: 600-800 D), Tumor Site: Type of Lesion: OROPHARYNX: PAPILLOMA OR CARCINOMA, ESOPHAGUS: PAPILLOMA OR CARCINOMA, STOMACH: SQUAMOUS CELL CARCINOMA, LIVER: HEPATOCE, Tumor Site: Type of Lesion: OROPHARYNX: PAPILLOMA OR CARCINOMA, ESOPHAGUS: PAPILLOMA OR CARCINOMA, STOMACH: SQUAMOUS CELL CARCINOMA, LIVER: HEPATOCE active; positive | Species: MOUSE, Strain/Sex: NZO/FEMALE, Dose: 0, 50 MG/L IN DRINKING WATER 5 D/WK FOR 32 WK (TOTAL DOSE: 52 MG) (STUDY DURATION: 1.5 YR), Tumor Site: Type of Lesion: OROPHARYNX: SQUAMOUS CELL CARCINOMA, SQUAMOUS CELL ADENOMA, STOMACH: SQUAMOUS CELL CARCINOMA, SQUAMOUS CELL ADENOMA, ESO, Tumor Site: Type of Lesion: OROPHARYNX: SQUAMOUS CELL CARCINOMA, SQUAMOUS CELL ADENOMA, STOMACH: SQUAMOUS CELL CARCINOMA, SQUAMOUS CELL ADENOMA, ESO active; positive | Species: MOUSE, Strain/Sex: NZO/FEMALE, Dose: 0, 200 MG/L IN DRINKING WATER 5 D/WK FOR 8 WK (TOTAL DOSE: 52 MG) (STUDY DURATION: 2 YR), Tumor Site: Type of Lesion: OROPHARYNX: SQUAMOUS CELL CARCINOMA, SQUAMOUS CELL ADENOMA, STOMACH: SQUAMOUS CELL CARCINOMA, SQUAMOUS CELL ADENOMA, ESO, Tumor Site: Type of Lesion: OROPHARYNX: SQUAMOUS CELL CARCINOMA, SQUAMOUS CELL ADENOMA, STOMACH: SQUAMOUS CELL CARCINOMA, SQUAMOUS CELL ADENOMA, ESO active; positive | Species: MOUSE, Strain/Sex: NZO/MALE, Dose: 0, 1.56 NMOL IN DRINKING WATER 5D/WK FOR 8 WK FOR A TOTAL DOSE OF 0, 6.1 MILLIMOLAR/KG (STUDY DURATION: 600-800 D), Dose: 0, 1.56 NMOL IN DRINKING WATER 5D/WK FOR 8 WK FOR A TOTAL DOSE OF 0, 6.1 MILLIMOLAR/KG (STUDY DURATION: 600-800 D), Tumor Site: Type of Lesion: OROPHARYNX: PAPILLOMA OR CARCINOMA, ESOPHAGUS: PAPILLOMA OR CARCINOMA, STOMACH: SQUAMOUS CELL CARCINOMA, LIVER: HEPATOCE, Tumor Site: Type of Lesion: OROPHARYNX: PAPILLOMA OR CARCINOMA, ESOPHAGUS: PAPILLOMA OR CARCINOMA, STOMACH: SQUAMOUS CELL CARCINOMA, LIVER: HEPATOCE active; positive | Species: MOUSE, Strain/Sex: NZO/MALE, Dose: 0, 50 MG/L IN DRINKING WATER 5 D/WK FOR 52 WK (TOTAL DOSE: 52 MG) (STUDY DURATION: 1.5 YR), Tumor Site: Type of Lesion: OROPHARYNX: SQUAMOUS CELL CARCINOMA, SQUAMOUS CELL ADENOMA, STOMACH: SQUAMOUS CELL CARCINOMA, SQUAMOUS CELL ADENOMA, ESO, Tumor Site: Type of Lesion: OROPHARYNX: SQUAMOUS CELL CARCINOMA, SQUAMOUS CELL ADENOMA, STOMACH: SQUAMOUS CELL CARCINOMA, SQUAMOUS CELL ADENOMA, ESO active; positive | Species: MOUSE, Strain/Sex: NZO/MALE, Dose: 0, 200 MG/L IN DRINKING WATER 5 D/WK FOR 8 WK (TOTAL DOSE: 52 MG) (STUDY DURATION: 2 YR), Tumor Site: Type of Lesion: OROPHARYNX: SQUAMOUS CELL CARCINOMA, SQUAMOUS CELL ADENOMA, STOMACH: SQUAMOUS CELL CARCINOMA, SQUAMOUS CELL ADENOMA, ESO, Tumor Site: Type of Lesion: OROPHARYNX: SQUAMOUS CELL CARCINOMA, SQUAMOUS CELL ADENOMA, STOMACH: SQUAMOUS CELL CARCINOMA, SQUAMOUS CELL ADENOMA, ESO active; positive | Species: MOUSE, Strain/Sex: NZY/FEMALE, Dose: 0, 1.56 NMOL IN DRINKING WATER 5D/WK FOR 8 WK FOR A TOTAL DOSE OF 0, 5.2 MILLIMOLAR/KG (STUDY DURATION: 600-800 D), Dose: 0, 1.56 NMOL IN DRINKING WATER 5D/WK FOR 8 WK FOR A TOTAL DOSE OF 0, 5.2 MILLIMOLAR/KG (STUDY DURATION: 600-800 D), Tumor Site: Type of Lesion: ESOPHAGUS: PAPILLOMA OR CARCINOMA, STOMACH: SQUAMOUS CELL CARCINOMA active; positive | Species: MOUSE, Strain/Sex: NZY/MALE, Dose: 0, 1.56 NMOL IN DRINKING WATER 5D/WK FOR 8 WK FOR A TOTAL DOSE OF 0, 5.4 MILLIMOLAR/KG (STUDY DURATION: 600-800 D), Dose: 0, 1.56 NMOL IN DRINKING WATER 5D/WK FOR 8 WK FOR A TOTAL DOSE OF 0, 5.4 MILLIMOLAR/KG (STUDY DURATION: 600-800 D), Tumor Site: Type of Lesion: ESOPHAGUS: PAPILLOMA OR CARCINOMA, STOMACH: SQUAMOUS CELL CARCINOMA, LIVER: HEPATOCELLULAR TUMOR, Tumor Site: Type of Lesion: ESOPHAGUS: PAPILLOMA OR CARCINOMA, STOMACH: SQUAMOUS CELL CARCINOMA, LIVER: HEPATOCELLULAR TUMOR active; positive | Species: RAT, Strain/Sex: F344/FEMALE, Dose: 0.9 MM (112 MG/L) IN DRINKING WATER 5/WK FOR 28 WK, Tumor Site: Type of Lesion: LIVER: CARCINOMA, SARCOMA, ESOPHAGUS: PAPILLOMA, CARCINOMA active; positive
